For one test, the system named is hamster urinary bladder. The test is described as follows: Hamster urinary bladder contraction preparation. On the set-up: species or system male golden Syrian hamsters. Conditions: for effect on NKA-mediated contractile activity: NKA with 10 »M of test compound, one experiment in triplicate; for contraction produced by test compound alone: up to concentrations of 1 »M, three separate hamster bladder tissues each, thiorphan 10 »M. The text has this: The abscissa (x-axis) logarithmically indicates the concentration in nanomoles of agonist or antagonist of the neurokinin A (NKA) receptor. The ordinate (y-axis) indicates the observed specific binding for each tested agonist or antagonist measured as a percentage of maximum specific binding. [formula] Agonists tested were NKA and fragments of NKA consisting of the third to tenth (NKA(3-10)) amino acids and the fourth to tenth (NKA(4-10)) amino acids. Values are MEAN ± S.E.M. of 6 - 12 experiments. […] The abscissa (x-axis) logarithmically indicates the concentration in nanomolar (nM) of agonist or antagonist of the NKA receptor. […] The abscissa (x-axis) logarithmically indicates the concentration in nanomolar (nM) of agonist or antagonist of the NKA receptor. […] H-Asp-Ser-Phe-Val-Gly-Leuψ[CH₂N(CH₃)]Leu-NH₂ up to 100»M had only 5% partial agonist activity, and H-Asp-Ser-Phe-Val-Gly-Leuψ[CH₂NH]Leu-NH₂ had only 12% partial agonist activity. […] The abscissa (x-axis) logarithmically indicates the concentration in nanomolar (nM) of NKA or NKA with 10 »M of H-Asp-Ser-Phe-Val-Gly-Leuψ[CH₂NH]Leu-NH₂. […] The abscissa (x-axis) logarithmically indicates the concentration in nanomolar (nM) of NKA or NKA with 10 »M of H-Asp-Ser-Phe-Val-Gly-Leuψ[CH₂N(CH₃)]Leu-NH₂. Values are MEAN ± S.E.M. from one experiment in triplicate.
Half-strips of urinary bladders from male golden Syrian hamsters (75 - 100 g) were suspended in Tyrode's buffer at 31°C and with 1 gram resting tension as described by Dion et al. (Life Sciences 41: 2269 - 2278, 1987). The enkephalinase inhibitor thiorphan was added to the buffer at 10 »M 15 minutes prior to each test compound addition. Cumulative NKA dose-response curves were constructed first in the absence and then in the presence of test compound. The test compounds were added cumulatively as well to ascertain whether or not they had any contractile effects themselves. Any test compound effect that was observed was allowed to plateau before the next cumulative concentration was added. Under these conditions, the EC₅₀ for NKA contractile effects was generally 10 nM, in good agreement with literature values. Contractile data are expressed as grams of tension developed over and above the resting tension. […] Figures 4 and 5 illustrate the contractile force as a function of NKA concentration in the absence and presence of test compound.

Another test deals with T1, NKA receptor (Mesocricetus auratus, UniProt P51144).
T1 construct: from tissue; host or cells: hamster urinary bladder, chopped tissue
T1 sequence (P51144 1-384): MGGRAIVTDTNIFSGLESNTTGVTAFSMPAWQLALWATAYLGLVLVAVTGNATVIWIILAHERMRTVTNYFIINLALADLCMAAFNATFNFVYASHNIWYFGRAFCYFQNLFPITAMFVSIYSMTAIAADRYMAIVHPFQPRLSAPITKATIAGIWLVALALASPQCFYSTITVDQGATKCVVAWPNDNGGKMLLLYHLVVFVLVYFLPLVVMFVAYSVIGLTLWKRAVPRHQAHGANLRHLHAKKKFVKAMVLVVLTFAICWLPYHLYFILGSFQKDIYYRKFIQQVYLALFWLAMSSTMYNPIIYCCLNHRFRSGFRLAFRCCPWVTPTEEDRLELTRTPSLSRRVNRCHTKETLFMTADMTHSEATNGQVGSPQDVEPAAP
The test is described as follows: Neurokinin A-induced phosphatidylinositol (PI) turnover in hamster urinary bladder. The class given is cell-based. Conditions: for shift of NKA dose-response curve (PI turnover): one experiment in triplicate; for partial agonist activity: test compound alone. The text has this: The abscissa (x-axis) logarithmically indicates the concentration in nanomoles of agonist or antagonist of the neurokinin A (NKA) receptor. […] The abscissa (x-axis) logarithmically indicates the concentration in nanomolar (nM) of agonist or antagonist of the NKA receptor. […] The abscissa (x-axis) logarithmically indicates the concentration in nanomolar (nM) of agonist or antagonist of the NKA receptor. […])]Leu-NH2 up to 100»M had only 5% partial agonist activity, and […] had only 12% partial agonist activity. […] Values are MEAN ± S.E.M. from one experiment in triplicate. Urinary bladders from several hamsters were pooled and chopped at 350 »m with a tissue chopper. The chopped tissue was then incubated in 37°C Krebs-Hepes buffer with fresh buffer changes every 15 minutes for 30 minutes. The tissue was then incubated in this buffer containing 100-200 »Ci of 3H-inositol at 37°C. The tissue was then washed and incubated for another 30 minutes in Krebs-Hepes (containing 10 mM Li+) at 37°C with fresh buffer change every 15 minutes. Portions of the tissue mass (approximately 10-20 mg per assay tube) were then placed in Li+ buffer, test compound was then added in 25 »l, and then various concentrations of neurokinin A were added in 25 »l in a final volume of 250 »l. […] Test compound was also evaluated alone at the indicated concentrations to test for agonist activity. After 30 minutes at room temperature, the phosphatidylinositol turnover was terminated by the addition of 940 »l chloroform:methanol (1:2), followed by 310 »l chloroform, followed by 310 »l water. Each tube was then vortexed for 15 seconds and then centrifuged at 3000 rpm for 10 minutes to separate the phases. 900 »l of the top (aqueous) phase was then loaded onto a 0.5 ml Biorad AG-1X8 (formate) ion exchange column. 50 »l of the bottom phase (chloroform) was withdrawn from each tube and placed in a counting vial, dried, and counted in scintillation fluid. The material on the columns was washed in order with: • 1) 10 ml of water • 2) 5 ml of 5 mM disodium tetraborate/60 mM sodium formate • 3) 10 ml of 1 M ammonium formate in 0.1 M formic acid The final (third) wash was collected and one ml was mixed with 6 ml of ACS scintillant and counted. The ratio of these counts (total inositol phosphates) to the corresponding organic phase counts was then calculated for each sample. The ratios in the presence of test compound and/or standards were then compared to the ratios for control tubes (i.e., no stimulating agonist). Dose-response curves were constructed and the abilities of test compounds to stimulate or to inhibit neurokinin A-induced phosphatidylinositol turnover were determined by graphical analysis or with the aid of a computer program and are illustrated in Figures 2 and 3.

Residues, ends and D or L forms follow the SMILES beside them.

Take `CC(C)C[C@@H](CN(C)[C@@H](CC(C)C)C(N)=O)NC(=O)CNC(=O)[C@@H](NC(=O)[C@H](Cc1ccccc1)NC(=O)[C@H](CO)NC(=O)[C@@H](N)CC(=O)O)C(C)C` [H-Asp-Ser-Phe-Val-Gly-Leuψ[CH₂N(CH₃)]Leu-NH₂] (HELM PEPTIDE1{D.S.F.V.G.[CC(C)C[C@@H](CN(C)[C@@H](CC(C)C)C(N)=O)N[*:1]]}$$$$V2.0): in the test on hamster urinary bladder, the “effect on NKA-mediated contractile activity” value is recorded as “antagonistic effect” and the “contraction produced by test compound alone” value is “did not produce any contraction”. In addition, the “shift of NKA dose-response curve (PI turnover)” value at NKA receptor (1, 10 and 100 »M test compound) is listed as “significant rightward shift of NKA dose-response curve in competitive manner”. For the same molecule, the Kb on NKA receptor (Schild plot of NKA dose-response shifts at 1, 10 and 100 »M, read-out: pA2 (converted)) was 21.9 nM. Also, the “slope of the Schild plot” value at NKA receptor (from NKA dose-response shifts at 1, 10 and 100 »M) is listed as “-.99”. This molecule came in with a partial agonist activity at NKA receptor (up to 100»M) of 5%.
On to `CC(C)C[C@@H](CN[C@@H](CC(C)C)C(N)=O)NC(=O)CNC(=O)[C@@H](NC(=O)[C@H](Cc1ccccc1)NC(=O)[C@H](CO)NC(=O)[C@@H](N)CC(=O)O)C(C)C` [H-Asp-Ser-Phe-Val-Gly-Leuψ[CH₂NH]Leu-NH₂] (HELM PEPTIDE1{D.S.F.V.G.[CC(C)C[C@@H](CN[C@@H](CC(C)C)C(N)=O)N[*:1]]}$$$$V2.0), for which, in the test on hamster urinary bladder, the “effect on NKA-mediated contractile activity” value is “antagonistic effect” and the “contraction produced by test compound alone” value is “did not produce any contraction”. Besides, the “shift of NKA dose-response curve (PI turnover)” value on NKA receptor (10 »M test compound) was “significant rightward shift of NKA dose-response curve in competitive manner”. The molecule also yielded a partial agonist activity on NKA receptor of 12%.
